Test results published in patent US10463610B2, “Composition comprising diacid derivatives and their use in the treatment of collagenic eye disorders” (THE UNIVERSITY OF LIVERPOOL, priority 2015, dated 2019).

What follows are compounds tested on pig corneas (assay: Tensile test (stiffness) of pig corneas after treating whole eye globes with cross-linking solution). Conditions: Experiment 1: diacid/NHS/EDCI solution in PBS with excess EDCI, 30 minutes incubation at 37° C., n=3 (FIG. 1).
Description: Pig eyes were collected from the abattoir on the day of slaughter. They were brought to the laboratory and any remaining soft tissue was carefully dissected away leaving just globe and the small section of optic nerve. These were washed 3 times in PBS. A drop of fluorescein dye (1% diluted 1:10 in PBS) was applied to the cornea of each eye to evaluate the integrity of the corneal epithelium (as used in the clinic). The globes were then washed again in PBS 3 times.
The globes were mounted individually on Perspex rings and placed corneal side down in 6-well cell culture plates. This ensured that the eyes were balanced stably and that the corneal surface was exposed in a controlled manner to the cross-linking solution.
Dissolve 575 mg of NHS and 775 mg of EDCI in 22.5 ml of PBS. Dissolve 500 mg Sebacic acid (decanedioic acid) or 435 mg of Suberic acid (octanedioic acid) or 365 mg of Adipic acid (hexanedioic acid) in 2.5 ml of PBS. Add each diacid solution to 22.5 ml of NHS/EDCI solution.
Experiments 2 and 3 used a Molar ratio of […] of suberic:NHS:EDCI using 319 mg NHS, 430 mg EDCI and 241 mg suberic acid. NHS/EDCI dissolved first in 7.5 ml PBS and suberic acid dissolved in 7.5 ml PBS with the addition of 500 ul DMAE to aid solubility. The two solution were added to each other and made up to 15 ml if necessary.
Add diacid/NHS/EDCI solution (4-5 ml) to 3 eyes for each diacid and add PBS (4-5 ml) to 3 eyes as control. Incubate for 30 minutes at 37° C. After 30 minutes, wash off solution with PBS (5 times).
Add suberic acid/NHS/EDCI solution (4-5 ml) to 3 eyes and add PBS (4-5 ml) to 3 eyes as control. […]
Since the cross-linking chemistry is based on EDCI/NHS mediated chemistry, the individual active moieties being used (EDCI and NHS) in the treatment solution are chemically able to crosslink proteins. The ability at which the individual chemicals are able to increase the biomechanical property of the cornea was assessed. Corneas were prepared, the masses of all the chemicals were measured out, and the corneas were treated as described above. […]

| SMILES | increase in stiffness compared to the untreated control corneas |
| --- | --- |
| O=C(O)CCCCC(=O)O [adipic acid, hexanedioic acid] | 63.6% |
| O=C(O)CCCCCCCCC(=O)O [Sebacic acid, decanedioic acid] | 54.8% |
| O=C(O)CCCCCCC(=O)O [suberic acid, octanedioic acid] | 84.9% |
